Reference: PubChem BioAssay (NCI)
Where “and” joins values, the source holds several entries; their conditions need not be identical. Identical values can stand only once.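 All cell lines were grown in 96-well plates and treated with compound for 48 hours. GI50 is the concentration that inhibits growth by half. The concentration for full growth arrest is given as TGI.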

Tests used:
Assay in all cases: growth of human tumour cells (NCI), 48 h
[1] = tested on: 786-0 renal
[2] = tested on: A549 NSCLC
[3] = tested on: CAKI-1 renal
[4] = tested on: HT29 colon
[5] = tested on: MDA-MB-435
[6] = tested on: NCI-H23 lung
[7] = tested on: NCI-H522 lung
[8] = tested on: OVCAR-5 ovarian
[9] = tested on: SF-268 CNS
[10] = tested on: T-47D breast

| SMILES | GI50 [1] | TGI [1] [µM] | GI50 [2] | TGI [2] [µM] | GI50 [3] | TGI [3] | GI50 [4] [µM] | TGI [4] | GI50 [5] [µM] | TGI [5] [µM] | GI50 [6] [µM] | TGI [6] | GI50 [7] [µM] | TGI [7] [µM] | GI50 [8] | TGI [8] | GI50 [9] | TGI [9] [µM] | GI50 [10] [µM] | TGI [10] |
| --- | --- | --- | --- | --- | --- | --- | --- | --- | --- | --- | --- | --- | --- | --- | --- | --- | --- | --- | --- | --- |
| COc1cc2c3c(n(CCCBr)c(=O)c2cc1OC)-c1ccc(F)cc1C3=O | 4730 nM | 17.9 | 36800 nM | > 100 | 7.9 µM | 33.7 µM | 16.9 | > 100 µM | 43.9 | > 100 | 17.8 | 76.4 µM | 4.9 | 36.3 | 50 µM | > 100 µM | 10.4 µM | > 100 | 4.86 | 62 µM |
| CCOC(=O)C1=C(Nc2ccc(Br)cc2)OC/C1=N\NC(=O)c1ccccc1O | – | > 100 | – | > 100 | – | > 71.1 µM | – | > 100 µM | – | – | – | 33.1 µM | – | 34.2 | – | > 100 µM | – | > 100 | – | – |
| CCC1(NC(=O)c2cc(F)c(F)c(F)c2F)C(=O)NC(=O)N(C(C)C)C1=O (centres undefined) | > 100000 nM | > 100 | 50700 nM | > 100 | 29.8 µM | > 100 µM | 22.6 | > 100 µM | 15.8 | 36.2 | 16.5 | 61.5 µM | – | – | > 100 µM | > 100 µM | 19.1 µM | 37 | > 100 | > 100 µM |
| N#Cc1nc2c(S(=O)(=O)c3ccccc3)c(N)n(Cc3ccc(Cl)cc3)c2nc1C#N | 7080 nM | 15.6 | 12100 nM | 41.3 | 26.7 µM | > 50 µM | – | – | 19.4 | > 50 | 6.46 | 38.6 µM | 7.18 | > 50 | 13 µM | > 50 µM | 9.14 µM | 37.6 | 15.5 | 46.4 µM |
| CC(C)CC12CC3CCC(CNC1=O)C32C (centres undefined) | – | > 100 | – | > 100 | – | > 100 µM | – | > 100 µM | – | – | – | > 100 µM | – | > 100 | – | > 100 µM | – | > 100 | – | – |
| O=C(N/C(=C\c1ccc(/C=C(\NC(=O)c2ccccc2)c2nc3ccccc3s2)cc1)c1nc2ccccc2s1)c1ccccc1 | – | 3.49 | – | 35.2 | – | 28 µM | – | 19.1 µM | – | – | – | 29.9 µM | – | 4.1 | – | 31 µM | – | 21.1 | – | – |
| N#Cc1ccc(Oc2cccc(Oc3ccccc3)c2)cc1C#N | > 100000 nM | > 100 | – | > 100 | > 100 µM | > 100 µM | > 100 | > 100 µM | – | – | – | > 100 µM | – | > 100 | > 100 µM | > 100 µM | – | > 100 | – | – |
| Nc1nccc2c1ncn2C1OC(CO)C(O)C1O (centres undefined) | > 100000 nM | > 100 | > 100000 nM | > 100 | > 100 µM | > 100 µM | > 100 | > 100 µM | – | – | > 100 | > 100 µM | > 100 | > 100 | > 100 µM | > 100 µM | 83.4 µM | > 100 | > 100 | > 100 µM |
| CC(C)C[C@H](NC(=O)[C@H](Cc1cccc2ccccc12)NS(=O)(=O)c1cccc2cccnc12)B(O)O | 49.5 nM | 12.8 | 62.6 nM | > 28.9 | 0.032 µM | 0.198 µM and 1.19 µM | 0.000937 | 0.022 µM | 0.000241 | 0.000574 | 0.00612 | 0.132 µM and 0.199 µM | – | 0.0352 | 0.00827 µM | 0.138 µM and 0.246 µM | – | – | 0.000928 | 0.0269 µM and < 0.0218 µM |
| Fc1ccc2c(c1)C1=C(CO2)C(c2ccc(Cl)cc2)NC(=S)N1 (centres undefined) | 21300 nM | 46 | 33200 nM | > 100 | 19.1 µM | 59.6 µM | 51.3 | > 100 µM | 21.6 | 51.1 | 26 | 58.5 µM | – | – | 28.2 µM | 84.3 µM | – | – | 63.2 | > 100 µM |
| CSc1ccc(SC2c3ccc(C)cc3Oc3nc(N)c(C#N)c(N)c32)cc1 (centres undefined) | 1680 nM | 3.07 | 1820 nM | 3.68 | – | – | 2.11 | 4.37 µM | 1.77 | 3.27 | 1.69 | 3.22 µM | 1.7 | 3.13 | 1.71 µM | 3.24 µM | 1.7 µM | 3.33 | 1.9 | 4.84 µM |
| COC(=O)[C@H](C)NC(=O)[C@@H](OC)[C@@H]1Cc2cc3cc(OC4CC(OC5CC(O)C(O)C(C)O5)C(O)C(C)O4)c(C)c(O)c3c(O)c2C(=O)[C@H]1OC1CC(OC2CC(OC3CC(C)(O)C(O)C(C)O3)C(O)C(C)O2)C(O)C(C)O1 (some centres undefined) | 148 nM | 9.16 | 195 nM | > 50 | 0.129 µM | 2.02 µM | 0.117 | > 50 µM | 0.0755 | 0.905 | 0.0939 | > 50 µM | – | – | 0.158 µM | > 50 µM | 0.092 µM | > 50 | 0.143 | > 50 µM |
| CCn1c(=O)c2ccccc2n2c(=O)c3cc4ccccc4cc3nc12 | – | > 100 | – | > 100 | – | > 100 µM | – | > 100 µM | – | – | – | > 100 µM | – | > 100 | – | > 100 µM | – | > 100 | – | – |
| CC(C)C[C@H](NC(=O)[C@@H](NC(=O)c1cccc(-c2ccccc2)n1)[C@@H](C)O)B(O)O | 12 nM and 14.7 nM | – | 17.3 nM and 18.8 nM | 8.58 | 0.0146 µM and < 0.0174 µM | – | 0.00396 | 0.0233 µM and 0.046 µM | – | – | 0.00633 | – | 0.00302 | 0.00881 | 0.00843 µM and < 0.0112 µM | 0.0513 µM | 0.00952 µM and 0.012 µM | 0.0436 | 0.00506 | 0.0231 µM |
| Cc1cnccc1N=Nc1ccc(N(C)C)cc1 | – | > 100 | – | > 100 | – | > 100 µM | – | 53.9 µM | – | 41.2 | – | 68.6 µM | – | – | – | > 100 µM | – | 56.5 | – | > 100 µM |
| CC(=O)OC1CCC2C(=CCC3C2(C)C(=O)CC2(C)C(C4(C)OC(C(C)C)=CC4=O)C(O)CC32C)C1(C)C (centres undefined) | – | > 100 | – | > 100 | – | > 100 µM | – | 32.3 µM | – | – | – | > 100 µM | – | > 100 | – | > 100 µM | – | > 100 | – | – |
